Laboratory results: patent publication EP0286364B1, “Substituted Di-t-Butylphenols” (RIKER LABORATORIES, INC., priority 1987, dated 1988)

Test system: male Hartley strain guinea pigs
Test: Konzett-Rossler in vivo test, antigen challenge of sensitized guinea pigs
Details: dosed orally, about 5 to 40 mg/kg, suspension in 4% aqueous acacia; ovalbumin 300 µg/kg intravenously 30 minutes later; bronchoconstrictor response
Protocol: The oral activity of compounds of Formula I may be demonsrated using the Konzett-Rossler in vivo test method. The activity is determined according to the procedure which follows. The Konzett-Rossler technique (H.Konzett and R. Rossler, Naunyn-Schmiedbergs Arch. Pharmakol., 195, 71-74, 1940 is used to assess the effect of compounds of Formula I of the invention on antigen challenge of male Hartley strain guinea pigs (350-500g). Fourteen days after sensitization with ovalbumin (50 mg/kg intraperitoneally) guinea pigs are anesthetized with pentobarbital (70 mg/kg intraperitoneally) and spontaneous respiration is eliminated with succinylcholine (2 mg/kg intra-peritoneally). The trachea is cannulated and respiration is maintained under positive pressure with a minature ventilator (5 ml/breath, 87 breaths/minute, 10 cm water). Bronchoconstrictor responses are represented as increased excursions of the tracing on a physiological recorder of air overflow to the lungs measured by a pneumotachograph in series with a differential pressure transducer. The guinea pigs are pretreated with an antihistamine, for example, chlorpheniramine, and are then dosed orally at a level of about 5 to 40 mg/kg with a suspension of a compound of Formula I of the invention in 4% aqueous acacia. The animals are challenged with ovalbumin (300 »g/kg intravenously) thirty (30) minutes later.

SMILES: CC(C)(C)c1cc(C(=O)Nc2cccc(-c3nnn[nH]3)c2)cc(C(C)(C)C)c1O.O [Example 7, 5-[3-(3,5-di-t-butyl-4-hydroxybenzamido)phenyl]tetrazole hydrate]
- oral activity: good oral activity
